Literature values, collected in publication PMC10485887, “PET Evaluation of the Novel F-18 Labeled Reversible Radioligand [^18F]GEH200449 for Detection of Monoamine Oxidase-B in the Non-Human Primate Brain” (ACS Chemical Neuroscience, 2023).

Test system: MAO-B
Parameters: method as in PMID 33284012
Conditions: autoradiography; cited from earlier work

## O=c1ccoc2ccc(OCc3ccc([18F])nc3)cc12 [[^18F]GEH200449]
  binding in human brain tissue: specific binding to MAO-B
  non-specific binding in human brain tissue: low
